In article PMC12523282, “New 5,6-diphenyl-1,2,4-triazine-hydrazineylidene-phenoxy-1,2,3-triazole-acetamide derivatives as potent synthetic α-glucosidase inhibitors” (RSC Advances, 2025):

Key:
[1] = target: α-glucosidase; set-up: method as in PMID 31838286; conditions: assay of template compounds B, Fig. 1 and Fig. 5; cited from earlier work
[2] = target: T1, α-glucosidase (Saccharomyces cerevisiae, UniProt P53341); experiment: Anti-α-glucosidase assay (p-nitrophenyl-α-D-glucopyranoside substrate, absorbance 405 nm); assay type: biochemical; conditions: for Inhibation: IC50 determination curve; for inhibition at 750 µM: read-out: In (%), inhibition percentage against α-glucosidase; for decrease of inhibitory activity relative to un-substituted derivative 13a: methyl group added to phenyl ring of 13a; for inhibitory activity, times more potent than acarbose: ratio of IC50 values vs acarbose
T1 construct: the yeast form of α-glucosidase, which was extracted from Saccharomyces cerevisiae; purchased Sigma-Aldrich; host or cells: Saccharomyces cerevisiae (extracted)
Experimental: After this time, the p-nitrophenyl-α-D-glucopyranoside (25 μL, 4 mM) was added to the latter plate and allowed to incubate at 37 °C for 20 min. […] The percentage of inhibition (% inhibition) for each sample was calculated using the formula “[(Abs control − Abs sample)/Abs control] × 100”, and IC50 values were obtained from non-linear regression curve using the Logit method.[24]

[3] = target: T1, α-glucosidase; experiment: Kinetic study (Lineweaver–Burk method); assay type: biochemical; conditions: Lineweaver–Burk plots
Experimental: Then, p-nitrophenyl-α-D-glucopyranoside at various concentrations (1–4 mM) was added to initiate the enzymatic reaction.
The type of inhibition mode was indicated by Lineweaver–Burk plots.

[4] = IC50 (from IC50 determination curves, supplement), logarithmic fit of inhibition vs Conc., unit inferred
[5] = IC50, yeast α-glucosidase, mean ± SD, at least three experiments

T1 sequence (P53341 whole entry): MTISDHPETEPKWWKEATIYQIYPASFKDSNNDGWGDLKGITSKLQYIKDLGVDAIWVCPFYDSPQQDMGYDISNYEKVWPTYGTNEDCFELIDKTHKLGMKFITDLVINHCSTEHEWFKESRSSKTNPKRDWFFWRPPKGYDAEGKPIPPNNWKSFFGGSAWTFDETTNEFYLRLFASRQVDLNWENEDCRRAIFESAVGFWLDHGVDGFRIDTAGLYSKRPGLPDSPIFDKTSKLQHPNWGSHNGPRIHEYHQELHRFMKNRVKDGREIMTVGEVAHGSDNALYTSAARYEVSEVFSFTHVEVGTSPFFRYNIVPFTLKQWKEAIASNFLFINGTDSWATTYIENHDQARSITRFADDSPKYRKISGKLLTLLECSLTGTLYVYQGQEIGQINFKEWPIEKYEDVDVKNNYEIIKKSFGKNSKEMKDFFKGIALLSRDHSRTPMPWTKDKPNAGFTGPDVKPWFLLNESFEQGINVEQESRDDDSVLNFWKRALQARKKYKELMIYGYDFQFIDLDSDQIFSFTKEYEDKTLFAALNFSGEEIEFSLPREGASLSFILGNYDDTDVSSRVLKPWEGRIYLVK

In the case of `O=C(Cn1cc(COc2ccc(-c3nc4ccccc4[nH]3)cc2)nn1)Nc1ccccc1Cl` [B (R = 2-Cl, n = 0)], the IC50 [1] is listed as 70.6 µM.
For `O=C(Cn1cc(COc2ccc(-c3nc4ccccc4[nH]3)cc2)nn1)Nc1ccccc1[N+](=O)[O-]` [B (R = 2-Nitro, n = 0)], the IC50 [1] is given as 35 µM.
For `O=C(Cn1cc(COc2ccc(-c3nc4ccccc4[nH]3)cc2)nn1)Nc1ccc(Br)cc1` [B (R = 4-Br, n = 0)], the IC50 [1] is listed as 176 µM.
For `O=C(Cn1cc(COc2ccc(-c3nc4ccccc4[nH]3)cc2)nn1)Nc1ccc(Cl)cc1` [B (R = 4-Cl, n = 0)], the IC50 [1] is given as 91.6 µM.
In the case of `COc1ccc(NC(=O)Cn2cc(COc3ccc(-c4nc5ccccc5[nH]4)cc3)nn2)cc1` [B (R = 4-OMe, n = 0)], the IC50 [1] is given as 112 µM.
For `O=C(Cn1cc(COc2ccc(-c3nc4ccccc4[nH]3)cc2)nn1)Nc1ccccc1` [B (R = H, n = 0)], the IC50 [1] is listed as 51.5 µM.
In the case of `O=C(Cn1cc(COc2ccc(-c3nc4ccccc4[nH]3)cc2)nn1)NCc1ccccc1` [B (R = H, n = 1)], the IC50 [1] is listed as 121 µM.
`O=C(Cn1cc(COc2ccc(/C=N/Nc3nnc(-c4ccccc4)c(-c4ccccc4)n3)cc2)nn1)Nc1ccccc1` [Compound 13a, (E)-2-(4-((4-((2-(5,6-Diphenyl-1,2,4-triazin-3-yl)hydrazineylidene)methyl)phenoxy)methyl)-1H-1,2,3-triazol-1-yl)-N-phenylacetamide] showed an Inhibation ([2]; Conc. 15 (unit not given)) of 76.53, an Inhibation ([2]; Conc. 30 (unit not given)) of 81.33 and an Inhibation ([2]; Conc. 60 (unit not given)) of 89. The Inhibation ([2]; Conc. 90 (unit not given)) was 93, the Inhibation ([2]; Conc. 120 (unit not given)) was 94 and the IC50 [2, 4] was less than 15 µM. The inhibition at 750 µM [2] was 95%.
For `Cc1ccccc1NC(=O)Cn1cc(COc2ccc(/C=N/Nc3nnc(-c4ccccc4)c(-c4ccccc4)n3)cc2)nn1` [Compound 13b, (E)-2-(4-((4-((2-(5,6-Diphenyl-1,2,4-triazin-3-yl)hydrazineylidene)methyl)phenoxy)methyl)-1H-1,2,3-triazol-1-yl)-N-(o-tolyl)acetamide], the Inhibation ([2]; Conc. 15 (unit not given)) was 54.87, the Inhibation ([2]; Conc. 30 (unit not given)) was 67 and the Inhibation ([2]; Conc. 60 (unit not given)) was 83. The Inhibation ([2]; Conc. 90 (unit not given)) was 93, the IC50 [2, 4] was 12.5 µM and the IC50 [2, 5] was 12.5 ± 0.21 µM. The “decrease of inhibitory activity relative to un-substituted derivative 13a” value [2] was 15.6 fold and the inhibition at 750 µM [2] was 98%.
For `Cc1cccc(NC(=O)Cn2cc(COc3ccc(/C=N/Nc4nnc(-c5ccccc5)c(-c5ccccc5)n4)cc3)nn2)c1` [Compound 13c, (E)-2-(4-((4-((2-(5,6-Diphenyl-1,2,4-triazin-3-yl)hydrazineylidene)methyl)phenoxy)methyl)-1H-1,2,3-triazol-1-yl)-N-(m-tolyl)acetamide], the Inhibation ([2]; Conc. 15 (unit not given)) was 74.8, the Inhibation ([2]; Conc. 30 (unit not given)) was 80.67 and the Inhibation ([2]; Conc. 60 (unit not given)) was 93. It also gave an Inhibation ([2]; Conc. 90 (unit not given)) of 96, an Inhibation ([2]; Conc. 120 (unit not given)) of 97 and an IC50 [2, 4] of less than 15 µM. For the same compound, the “decrease of inhibitory activity relative to un-substituted derivative 13a” value [2] was 2.25 fold and the inhibition at 750 µM [2] was 100%.
For `Cc1ccc(NC(=O)Cn2cc(COc3ccc(/C=N/Nc4nnc(-c5ccccc5)c(-c5ccccc5)n4)cc3)nn2)c(C)c1` [Compound 13d, (E)-N-(2,4-Dimethylphenyl)-2-(4-((4-((2-(5,6-diphenyl-1,2,4-triazin-3-yl)hydrazineylidene)methyl)phenoxy)methyl)-1H-1,2,3-triazol-1-yl)acetamide], the Inhibation ([2]; Conc. 15 (unit not given)) was 61.12, the Inhibation ([2]; Conc. 30 (unit not given)) was 65.17 and the Inhibation ([2]; Conc. 60 (unit not given)) was 68. For the same compound, the Inhibation ([2]; Conc. 90 (unit not given)) was 72, the Inhibation ([2]; Conc. 120 (unit not given)) was 74 and the IC50 [2, 4] was less than 15 µM. It also gave an inhibition at 750 µM [2] of 75%.
Compound `CCc1ccc(NC(=O)Cn2cc(COc3ccc(/C=N/Nc4nnc(-c5ccccc5)c(-c5ccccc5)n4)cc3)nn2)cc1` [Compound 13e, (E)-2-(4-((4-((2-(5,6-Diphenyl-1,2,4-triazin-3-yl)hydrazineylidene)methyl)phenoxy)methyl)-1H-1,2,3-triazol-1-yl)-N-(4-ethylphenyl)acetamide] has an Inhibation ([2]; Conc. 15 (unit not given)) of 69.6, an Inhibation ([2]; Conc. 30 (unit not given)) of 82.93 and an Inhibation ([2]; Conc. 60 (unit not given)) of 95. For the same compound, the IC50 [2, 4] was less than 15 µM, the “potency relative to 4-methoxy derivative 13f” value ([2]; more potent than 13f) was “around 3 fold” and the inhibition at 750 µM [2] was 100%.
Compound `COc1ccc(NC(=O)Cn2cc(COc3ccc(/C=N/Nc4nnc(-c5ccccc5)c(-c5ccccc5)n4)cc3)nn2)cc1` [Compound 13f, (E)-2-(4-((4-((2-(5,6-Diphenyl-1,2,4-triazin-3-yl)hydrazineylidene)methyl)phenoxy)methyl)-1H-1,2,3-triazol-1-yl)-N-(4-methoxyphenyl)acetamide] has an Inhibation ([2]; Conc. 15 (unit not given)) of 56, an Inhibation ([2]; Conc. 30 (unit not given)) of 72.67 and an Inhibation ([2]; Conc. 60 (unit not given)) of 89. For the same compound, the Inhibation ([2]; Conc. 90 (unit not given)) was 98, the IC50 [2, 4] was 10.9 µM and the IC50 [2, 5] was 10.9 ± 0.24 µM. For the same compound, the inhibition at 750 µM [2] was 100%.
For `O=C(Cn1cc(COc2ccc(/C=N/Nc3nnc(-c4ccccc4)c(-c4ccccc4)n3)cc2)nn1)Nc1ccccc1F` [Compound 13g, (E)-2-(4-((4-((2-(5,6-Diphenyl-1,2,4-triazin-3-yl)hydrazineylidene)methyl)phenoxy)methyl)-1H-1,2,3-triazol-1-yl)-N-(2-fluorophenyl)acetamide], the Inhibation ([2]; Conc. 15 (unit not given)) was 69.05, the Inhibation ([2]; Conc. 30 (unit not given)) was 72.24 and the Inhibation ([2]; Conc. 60 (unit not given)) was 76. For the same compound, the Inhibation ([2]; Conc. 90 (unit not given)) was 78, the IC50 [2, 4] was less than 15 µM and the inhibition at 750 µM [2] was 79%.
In the case of `O=C(Cn1cc(COc2ccc(/C=N/Nc3nnc(-c4ccccc4)c(-c4ccccc4)n3)cc2)nn1)Nc1ccccc1Cl` [Compound 13h, (E)-N-(2-Chlorophenyl)-2-(4-((4-((2-(5,6-diphenyl-1,2,4-triazin-3-yl)hydrazineylidene)methyl)phenoxy)methyl)-1H-1,2,3-triazol-1-yl)acetamide], the Inhibation ([2]; Conc. 15 (unit not given)) is reported as 75.34, the Inhibation ([2]; Conc. 30 (unit not given)) is reported as 79.31 and the Inhibation ([2]; Conc. 60 (unit not given)) is reported as 83. For the same compound, the Inhibation ([2]; Conc. 90 (unit not given)) was 86, the IC50 [2, 4] was less than 15 µM and the “inhibitory activity, times more potent than acarbose” value [2] was roughly 3947 fold. It also gave an inhibition at 750 µM [2] of 87%.
For `O=C(Cn1cc(COc2ccc(/C=N/Nc3nnc(-c4ccccc4)c(-c4ccccc4)n3)cc2)nn1)Nc1cccc(Cl)c1` [Compound 13i, (E)-N-(3-Chlorophenyl)-2-(4-((4-((2-(5,6-diphenyl-1,2,4-triazin-3-yl)hydrazineylidene)methyl)phenoxy)methyl)-1H-1,2,3-triazol-1-yl)acetamide], the Inhibation ([2]; Conc. 15 (unit not given)) was 53.4, the Inhibation ([2]; Conc. 30 (unit not given)) was 74.73 and the Inhibation ([2]; Conc. 60 (unit not given)) was 84. For the same compound, the Inhibation ([2]; Conc. 90 (unit not given)) was 98, the IC50 [2, 4] was 11.7 µM and the IC50 [2, 5] was 11.7 ± 0.18 µM. It also gave an inhibition at 750 µM [2] of 100%.
For `O=C(Cn1cc(COc2ccc(/C=N/Nc3nnc(-c4ccccc4)c(-c4ccccc4)n3)cc2)nn1)Nc1ccc(Cl)cc1` [Compound 13j, (E)-N-(4-Chlorophenyl)-2-(4-((4-((2-(5,6-diphenyl-1,2,4-triazin-3-yl)hydrazineylidene)methyl)phenoxy)methyl)-1H-1,2,3-triazol-1-yl)acetamide], the “effect of increasing inhibitor concentration on Vmax and Km” value [3] was “decrease in both Vmax and Km values”, the “type of inhibition mode” value [3] was “uncompetitive α-glucosidase inhibitor” and the Inhibation ([2]; Conc. 15 (unit not given)) was 73.02. For the same compound, the Inhibation ([2]; Conc. 30 (unit not given)) was 75.43, the Inhibation ([2]; Conc. 60 (unit not given)) was 79 and the Inhibation ([2]; Conc. 90 (unit not given)) was 81. The IC50 [2, 4] was less than 15 µM, the IC50 [2, 5] was 0.12 ± 0.02 µM and the inhibition at 750 µM [2] was 83%.
`O=C(Cn1cc(COc2ccc(/C=N/Nc3nnc(-c4ccccc4)c(-c4ccccc4)n3)cc2)nn1)Nc1ccc(Br)cc1` [Compound 13k, (E)-N-(4-Bromophenyl)-2-(4-((4-((2-(5,6-diphenyl-1,2,4-triazin-3-yl)hydrazineylidene)methyl)phenoxy)methyl)-1H-1,2,3-triazol-1-yl)acetamide] showed an Inhibation ([2]; Conc. 15 (unit not given)) of 49.91, an Inhibation ([2]; Conc. 30 (unit not given)) of 56.12 and an Inhibation ([2]; Conc. 60 (unit not given)) of 60. It also gave an Inhibation ([2]; Conc. 90 (unit not given)) of 65, an Inhibation ([2]; Conc. 120 (unit not given)) of 67 and an IC50 [2, 4] of 15.3 µM. The IC50 [2, 5] was 15.3 ± 0.29 µM and the inhibition at 750 µM [2] was 69%.
`O=C(Cn1cc(COc2ccc(/C=N/Nc3nnc(-c4ccccc4)c(-c4ccccc4)n3)cc2)nn1)Nc1ccccc1[N+](=O)[O-]` [Compound 13l, (E)-2-(4-((4-((2-(5,6-Diphenyl-1,2,4-triazin-3-yl)hydrazineylidene)methyl)phenoxy)methyl)-1H-1,2,3-triazol-1-yl)-N-(2-nitrophenyl)acetamide] gave an Inhibation ([2]; Conc. 15 (unit not given)) of 37.76, an Inhibation ([2]; Conc. 30 (unit not given)) of 48.45 and an Inhibation ([2]; Conc. 60 (unit not given)) of 59. The Inhibation ([2]; Conc. 90 (unit not given)) was 65, the Inhibation ([2]; Conc. 120 (unit not given)) was 67 and the IC50 [2, 4] was 34.2 µM. The IC50 [2, 5] was 34.2 ± 0.57 µM, the “inhibitory activity, times more potent than acarbose” value [2] was 21.9 fold and the inhibition at 750 µM [2] was 69%.
`O=C(Cn1cc(COc2ccc(/C=N/Nc3nnc(-c4ccccc4)c(-c4ccccc4)n3)cc2)nn1)NCc1ccccc1` [Compound 13m, (E)-N-Benzyl-2-(4-((4-((2-(5,6-diphenyl-1,2,4-triazin-3-yl)hydrazineylidene)methyl)phenoxy)methyl)-1H-1,2,3-triazol-1-yl)acetamide] gave an Inhibation ([2]; Conc. 15 (unit not given)) of 70, an Inhibation ([2]; Conc. 30 (unit not given)) of 80 and an Inhibation ([2]; Conc. 60 (unit not given)) of 87. For the same compound, the Inhibation ([2]; Conc. 90 (unit not given)) was 88.3, the Inhibation ([2]; Conc. 120 (unit not given)) was 89 and the inhibition at 750 µM [2] was 90%.
With `O=C(Cn1cc(COc2ccc(/C=N/Nc3nnc(-c4ccccc4)c(-c4ccccc4)n3)cc2)nn1)NCCc1ccccc1` [Compound 13n, (E)-2-(4-((4-((2-(5,6-Diphenyl-1,2,4-triazin-3-yl)hydrazineylidene)methyl)phenoxy)methyl)-1H-1,2,3-triazol-1-yl)-N-phenethylacetamide] the Inhibation ([2]; Conc. 15 (unit not given)) was 79.27, the Inhibation ([2]; Conc. 30 (unit not given)) was 84.67 and the Inhibation ([2]; Conc. 60 (unit not given)) was 90. The Inhibation ([2]; Conc. 90 (unit not given)) was 93, the Inhibation ([2]; Conc. 120 (unit not given)) was 98 and the IC50 [2, 4] was less than 15 µM. The inhibition at 750 µM [2] was 100%.
